{
  "source": "patent US12350259B2",
  "about": "“Methods of treating migraine” (Allergan Pharmaceuticals International Limited, priority 2021, dated 2025)",
  "key": {"[1]": {"test_system": "patients with episodic migraine", "assay": "Study 1 (NCT03777059): preventive treatment of episodic migraine, efficacy", "format": "in vivo, human", "protocol": "The studies enrolled patients with at least a 1-year history of migraine with or without aura, according to the International Classification of Headache Disorders (ICHD-3) diagnostic criteria. In Study 1 (NCT03777059), 910 patients were randomized 1:1:1:1 to receive atogepant 10 mg (N=222), atogepant 30 mg (N=230), atogepant 60 mg (N=235), or placebo (N=223), once daily for 12 weeks. In Study 2 (NCT02848326), 652 patients were randomized 1:2:2:2 to receive atogepant 10 mg (N=94), atogepant 30 mg (N=185), atogepant 60 mg (N=187), or placebo (N=186), once daily for 12 weeks. In both studies, patients were allowed to use acute headache treatments (i.e., triptans, ergotamine derivatives, NSAIDs, acetaminophen, and opioids) as needed. The use of a concomitant medication that acts on the CGRP pathway was not permitted for either acute or preventive treatment of migraine. The studies excluded patients with myocardial infarction, stroke, or transient ischemic attacks within six months prior to screening. The primary efficacy endpoint was the change from baseline in mean monthly migraine days (MMD) across the 12-week treatment period. Secondary endpoints included the change from baseline in mean monthly headache days, the change from baseline in mean monthly acute medication use days, the proportion of patients achieving at least a 50% reduction from baseline in mean MMD (3-month average), the change from baseline in mean monthly Activity Impairment in Migraine-Diary (AIM-D) Performance of Daily Activities (PDA) domain scores, the change from baseline in mean monthly AIM-D Physical Impairment (PI) domain scores, across the 12 week treatment period, and the change from baseline at Week 12 for Migraine Specific Quality of Life Questionnaire version 2.1 (MSQ v2.1) Role Function-Restrictive (RFR) domain scores. The AIM-D evaluates difficulty with performance of daily activities (PDA domain) and physical impairment (PI domain) due to migraine, with scores ranging from 0 to 100. Higher scores indicate greater impact of migraine, and reductions from baseline indicate improvement. The MSQ v2.1 Role Function-Restrictive (RFR) domain score assesses how often migraine impacts function related to daily social and work-related activities over the past 4 weeks, with scores ranging from 0 to 100. Higher scores indicate lesser impact of migraine on daily activities, and increases from baseline indicate improvement."}, "[2]": {"assay": "Atogepant-esomeprazole drug interaction study: atogepant PK", "format": "in vivo, human", "conditions": "for Tmax: human, plasma, oral", "protocol": "A phase 1, open-label, 2-intervention, single-sequence, nonrandomized, crossover, drug-drug interaction study was conducted to evaluate the effects of multiple-dose esomeprazole magnesium 40 mg on pharmacokinetics (PK) and safety of co-administered single-dose atogepant 60 mg in healthy adults.\nIn this study, healthy adult participants received single-dose oral atogepant 60 mg on day 1, followed by once-daily esomeprazole 40 mg on days 7-13, co-administered with single-dose atogepant on day 12. Samples for atogepant PK analysis were collected on days 1 and 12. PK parameters calculated from atogepant plasma concentrations included peak plasma concentration (Cmax); time to Cmax (tmax); area under plasma concentration-time curve from time 0 to […] (AUC0-t) and from time 0 to infinity (AUC0-∞). PK parameters of atogepant alone vs. co-administered with esomeprazole were compared using a mixed-effects model. Statistical significance was achieved if 90% confidence intervals (CIs) for geometric least squares mean ratios (GMRs) of PK parameter values for atogepant co-administered with esomeprazole to atogepant administered alone were within 80%-125%."}, "[3]": {"assay": "Atogepant-quinidine gluconate (P-gp inhibition) drug interaction study: atogepant PK", "format": "in vivo, human", "protocol": "A phase 1, single-center, single-sequence, open-label, 2-intervention, drug-drug interaction study was conducted to evaluate the effects of P-glycoprotein (P-gp) inhibition by quinidine gluconate on pharmacokinetics (PK) and safety of atogepant. In this study, healthy adults received atogepant 60 mg on day 1, quinidine gluconate 324 mg twice daily on Day 8, quinidine gluconate 648 mg twice-daily on days 9-12, and atogepant 60 mg co-administered on day 11. Plasma samples were collected on days 1 and 11.\nAtogepant PK parameters calculated were peak plasma concentration (Cmax); time to Cmax (tmax); and area under plasma concentration—time curve from time 0 to time t (AUC0-t) and infinity (AUC0-∞). PK parameters of atogepant co-administered with quinidine gluconate vs. atogepant administered alone were compared using a mixed-effects model. Statistical significance was achieved if 90% confidence intervals (Cis) for least squares geometric mean ratios (GMRs) of PK parameter values for atogepant co-administered with quinidine gluconate to atogepant administered alone were within 80%-125%. Safety assessments included clinical laboratory values, vital signs, electrocardiograms, and […] adverse events (TEAEs)."}, "[4]": {"assay": "Hepatic impairment study: safety and tolerability", "format": "in vivo, human", "conditions": "single 60 mg dose, all hepatic function groups", "protocol": "A multicenter, non-randomized, open-label, parallel-group, single-dose study was carried out to evaluate the PK, safety, and tolerability profiles of atogepant in participants with impaired hepatic function and matched healthy participants with normal hepatic function after a single 60-mg oral dose of atogepant. The primary outcome measures were PK parameters of atogepant derived from plasma concentrations. Safety measures were AEs, clinical laboratory determinations, vital sign parameters, electrocardiographic results, and physical examination findings."}, "MRP4": {"biological_target": "MRP4 (Homo sapiens, UniProt O15439)", "sequence (O15439 whole entry)": "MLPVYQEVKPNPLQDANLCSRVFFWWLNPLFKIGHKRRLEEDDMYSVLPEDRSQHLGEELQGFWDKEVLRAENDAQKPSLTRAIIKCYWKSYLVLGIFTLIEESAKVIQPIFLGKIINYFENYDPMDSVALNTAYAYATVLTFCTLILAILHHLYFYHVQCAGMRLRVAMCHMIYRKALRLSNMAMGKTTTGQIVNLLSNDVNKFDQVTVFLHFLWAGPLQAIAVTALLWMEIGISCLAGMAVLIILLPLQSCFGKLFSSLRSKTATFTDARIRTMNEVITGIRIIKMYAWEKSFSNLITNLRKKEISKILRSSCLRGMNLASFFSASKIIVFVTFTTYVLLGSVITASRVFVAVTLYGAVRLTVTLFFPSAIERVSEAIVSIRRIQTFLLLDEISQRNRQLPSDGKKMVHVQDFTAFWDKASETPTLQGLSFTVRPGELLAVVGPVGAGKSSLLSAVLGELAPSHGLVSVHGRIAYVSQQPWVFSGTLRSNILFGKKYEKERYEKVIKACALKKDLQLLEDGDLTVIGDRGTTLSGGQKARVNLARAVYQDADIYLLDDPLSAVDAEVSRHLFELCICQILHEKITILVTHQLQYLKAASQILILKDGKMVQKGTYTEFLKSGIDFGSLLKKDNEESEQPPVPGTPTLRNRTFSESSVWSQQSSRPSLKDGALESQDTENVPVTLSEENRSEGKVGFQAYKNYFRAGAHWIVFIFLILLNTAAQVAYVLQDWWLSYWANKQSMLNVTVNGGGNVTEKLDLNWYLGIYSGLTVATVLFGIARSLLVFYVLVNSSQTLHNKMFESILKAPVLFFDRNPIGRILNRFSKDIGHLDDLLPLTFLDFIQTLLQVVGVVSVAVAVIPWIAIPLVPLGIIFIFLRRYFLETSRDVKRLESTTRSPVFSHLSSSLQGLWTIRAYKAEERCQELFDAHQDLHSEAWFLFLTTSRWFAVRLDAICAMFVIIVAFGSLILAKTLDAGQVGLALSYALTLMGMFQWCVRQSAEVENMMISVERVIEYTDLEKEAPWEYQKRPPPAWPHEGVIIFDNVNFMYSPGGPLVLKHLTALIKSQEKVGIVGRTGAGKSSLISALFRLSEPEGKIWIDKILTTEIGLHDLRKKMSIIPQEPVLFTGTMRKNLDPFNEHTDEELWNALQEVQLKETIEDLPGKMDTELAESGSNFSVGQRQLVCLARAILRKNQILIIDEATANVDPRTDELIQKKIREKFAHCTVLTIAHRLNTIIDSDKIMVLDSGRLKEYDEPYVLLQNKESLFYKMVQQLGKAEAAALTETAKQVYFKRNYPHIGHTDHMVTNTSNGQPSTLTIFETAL", "assay": "Transporter inhibition", "format": "in vitro ADME", "conditions": "clinically relevant concentrations"}, "[5]": {"conditions": "Study 1, atogepant 10 mg once daily"}, "[6]": {"conditions": "Study 1, atogepant 30 mg once daily"}, "[7]": {"conditions": "Study 1, atogepant 60 mg once daily"}, "[8]": {"conditions": "co-administered with quinidine gluconate"}},
  "data": [
    {"smiles": "C[C@@H]1[C@H](c2c(F)ccc(F)c2F)C[C@H](NC(=O)c2cnc3c(c2)C[C@@]2(C3)C(=O)Nc3ncccc32)C(=O)N1CC(F)(F)F", "note": "[atogepant, (3′S)-N-[(3S,5S,6R)-6-methyl-2-oxo-1-(2,2,2-trifluoroethyl)-5-(2,3,6-trifluorophenyl)piperidin-3-yl]-2′-oxo-1′,2′,5,7-tetrahydrospiro[cyclopenta[b]pyridine-6,3′-pyrrolo[2,3-b]pyridine]-3-carboxamide]", "values": [
      {"measurement": "AIM-D PDA Domain across 12 weeks, difference from placebo", "setting": "[1]; [5]", "result": "−1.2"},
      {"measurement": "AIM-D PDA Domain across 12 weeks, mean change from baseline", "setting": "[1]; [5]", "result": "−7.3"},
      {"measurement": "AIM-D PI Domain across 12 weeks, difference from placebo", "setting": "[1]; [5]", "result": "−1.1"},
      {"measurement": "AIM-D PI Domain across 12 weeks, mean change from baseline", "setting": "[1]; [5]", "result": "−5.1"},
      {"measurement": "MSQ v2.1 RFR Domain at week 12, difference from placebo", "setting": "[1]; [5]", "result": 9.9},
      {"measurement": "MSQ v2.1 RFR Domain at week 12, mean change from baseline", "setting": "[1]; [5]", "result": 30.4},
      {"measurement": "Monthly Acute Medication Use Days across 12 weeks, difference from placebo", "setting": "[1]; [5]", "result": "−1.3"},
      {"measurement": "Monthly Acute Medication Use Days across 12 weeks, mean change from baseline", "setting": "[1]; [5]", "result": "−3.7"},
      {"measurement": "Monthly Headache Days across 12 weeks, difference from placebo", "setting": "[1]; [5]", "result": "−1.4"},
      {"measurement": "Monthly Headache Days across 12 weeks, mean change from baseline", "setting": "[1]; [5]", "result": "−3.9"},
      {"measurement": "Monthly Migraine Days (MMD) across 12 weeks, difference from placebo", "setting": "[1]; [5]", "result": "−1.2"},
      {"measurement": "Monthly Migraine Days (MMD) across 12 weeks, mean change from baseline", "setting": "[1]; [5]", "result": "−3.7"},
      {"measurement": "≥50% MMD Responders across 12 weeks, % Responders", "setting": "[1]; [5]", "result": 56, "unit": "%"},
      {"measurement": "≥50% MMD Responders across 12 weeks, difference from placebo", "setting": "[1]; [5]", "result": 27, "unit": "%"},
      {"measurement": "AIM-D PDA Domain across 12 weeks, difference from placebo", "setting": "[1]; [6]", "result": "−2.5"},
      {"measurement": "AIM-D PDA Domain across 12 weeks, mean change from baseline", "setting": "[1]; [6]", "result": "−8.6"},
      {"measurement": "AIM-D PI Domain across 12 weeks, difference from placebo", "setting": "[1]; [6]", "result": "−2.0"},
      {"measurement": "AIM-D PI Domain across 12 weeks, mean change from baseline", "setting": "[1]; [6]", "result": "−6.0"},
      {"measurement": "MSQ v2.1 RFR Domain at week 12, difference from placebo", "setting": "[1]; [6]", "result": 10.1},
      {"measurement": "MSQ v2.1 RFR Domain at week 12, mean change from baseline", "setting": "[1]; [6]", "result": 30.5},
      {"measurement": "Monthly Acute Medication Use Days across 12 weeks, difference from placebo", "setting": "[1]; [6]", "result": "−1.3"},
      {"measurement": "Monthly Acute Medication Use Days across 12 weeks, mean change from baseline", "setting": "[1]; [6]", "result": "−3.7"},
      {"measurement": "Monthly Headache Days across 12 weeks, difference from placebo", "setting": "[1]; [6]", "result": "−1.5"},
      {"measurement": "Monthly Headache Days across 12 weeks, mean change from baseline", "setting": "[1]; [6]", "result": "−4.0"},
      {"measurement": "Monthly Migraine Days (MMD) across 12 weeks, difference from placebo", "setting": "[1]; [6]", "result": "−1.4"},
      {"measurement": "Monthly Migraine Days (MMD) across 12 weeks, mean change from baseline", "setting": "[1]; [6]", "result": "−3.9"},
      {"measurement": "≥50% MMD Responders across 12 weeks, % Responders", "setting": "[1]; [6]", "result": 59, "unit": "%"},
      {"measurement": "≥50% MMD Responders across 12 weeks, difference from placebo", "setting": "[1]; [6]", "result": 30, "unit": "%"},
      {"measurement": "AIM-D PDA Domain across 12 weeks, difference from placebo", "setting": "[1]; [7]", "result": "−3.3"},
      {"measurement": "AIM-D PDA Domain across 12 weeks, mean change from baseline", "setting": "[1]; [7]", "result": "−9.4"},
      {"measurement": "AIM-D PI Domain across 12 weeks, difference from placebo", "setting": "[1]; [7]", "result": "−2.5"},
      {"measurement": "AIM-D PI Domain across 12 weeks, mean change from baseline", "setting": "[1]; [7]", "result": "−6.5"},
      {"measurement": "MSQ v2.1 RFR Domain at week 12, difference from placebo", "setting": "[1]; [7]", "result": 10.8},
      {"measurement": "MSQ v2.1 RFR Domain at week 12, mean change from baseline", "setting": "[1]; [7]", "result": 31.3},
      {"measurement": "Monthly Acute Medication Use Days across 12 weeks, difference from placebo", "setting": "[1]; [7]", "result": "−1.5"},
      {"measurement": "Monthly Acute Medication Use Days across 12 weeks, mean change from baseline", "setting": "[1]; [7]", "result": "−3.9"},
      {"measurement": "Monthly Headache Days across 12 weeks, difference from placebo", "setting": "[1]; [7]", "result": "−1.7"},
      {"measurement": "Monthly Headache Days across 12 weeks, mean change from baseline", "setting": "[1]; [7]", "result": "−4.2"},
      {"measurement": "Monthly Migraine Days (MMD) across 12 weeks, difference from placebo", "setting": "[1]; [7]", "result": "−1.7"},
      {"measurement": "Monthly Migraine Days (MMD) across 12 weeks, mean change from baseline", "setting": "[1]; [7]", "result": "−4.2"},
      {"measurement": "≥50% MMD Responders across 12 weeks, % Responders", "setting": "[1]; [7]", "result": 61, "unit": "%"},
      {"measurement": "≥50% MMD Responders across 12 weeks, difference from placebo", "setting": "[1]; [7]", "result": 32, "unit": "%"},
      {"measurement": "reduced Cmax", "setting": "[2]; coadministration with esomeprazole", "result": 23, "unit": "%"},
      {"measurement": "Tmax", "setting": "[2]; 60 mg, atogepant 60 mg alone, read-out: median plasma atogepant tmax", "result": 1.51, "unit": "h"},
      {"measurement": "Tmax", "setting": "[2]; atogepant 60 mg coadministered with esomeprazole 40 mg, read-out: median plasma atogepant tmax", "result": 3, "unit": "h"},
      {"measurement": "Tmax", "setting": "[2]; coadministration with esomeprazole vs alone, read-out: delay of median tmax", "result": 1.5, "unit": "h"},
      {"measurement": "AUC increase", "setting": "[3]; [8]", "result": "approximately 25%"},
      {"measurement": "Cmax increase", "setting": "[3]; [8]", "result": 4.4, "unit": "%"},
      {"measurement": "Tmax", "setting": "[3]; human, plasma, with or without quinidine gluconate, read-out: atogepant median tmax", "result": 1.5, "unit": "h"},
      {"measurement": "tolerability", "setting": "[4]", "result": "well tolerated"},
      {"measurement": "inhibition of MRP4", "setting": "MRP4", "result": "not an inhibitor"}
    ]}
  ]
}
